Consider 5 molecules from patent US10670616B2, “Microchip for assay of blood properties, and device for assay of blood properties” (FUJIMORI KOGYO CO., LTD., priority 2014, dated 2020).

For experiment [1], the system named is blood coagulation. Nature of the experiment: ROTEM analysis of blood coagulation in the absence of blood flow (Comparative Example 1). In kind it is cell-based. As to conditions: 12 mM calcium chloride, 50 μg/ml CTI and 1 μg/ml Arixtra. Here is the method:
Blood was collected using a blood collection tube containing 3.2% sodium citrate, manufactured by Terumo Corporation. To the collected blood, 12 mM calcium chloride; 12 mM calcium chloride and 50 μg/ml CTI; or 12 mM calcium chloride, 50 μg/ml CTI, and 1 μg/ml Arixtra (synthetic pentasaccharide, GlaxoSmithKline K.K.); was/were added, and each resulting blood was analyzed by ROTEM (Tem International GmbH).

Experiment [2] relates to thrombus formation in blood. Nature of the experiment: Microchip pressure analysis, first channel, collagen + tissue thromboplastin, 8 μl/min (Example 4). The class given is cell-based. The settings on record: for integrated values of the pressures measured for 10 minutes, first channel: 8 μL/min. Here is the method: (§1) A microchip having the same shape as in Examples 1 to 3 was prepared, and, in the second substrate 1b, a solution prepared by mixing 3 mg/ml collagen solution and 0.4 mg/ml tissue thromboplastin solution at a ratio of 1:1 was applied to the positions corresponding to the first reaction section 102 and the second reaction section 112 such that each applied area has a size of 6 mm×6 mm. The microchip prepared was used in the following experiment.
(§2) Blood was collected using a blood collection tube containing 3.2% sodium citrate, manufactured by Terumo Corporation. To the collected blood, 50 μg/ml (final concentration) CTI and 12 mM (final concentration) calcium chloride were added, and the resulting blood was used for perfusion of the first channel at a flow rate of 8 μl/min. (initial wall shear rate, about 660 s^−1) and the second channel at a flow rate of 24 μl/min. (initial wall shear rate, about 2000 s^−1) for 10 minutes while pressure analysis was carried out.
(§3) The same experiment as in Example 4-1 was carried out using (1) blood prepared by 2-fold dilution of the citrate blood with physiological saline; (2) blood prepared by adding a 0.5 U vWF (von Willebrand factor) formulation (CSL-Behring) to the 2-fold diluted blood of (1); (3) blood prepared by adding a 0.5 U PCC formulation (CSL-Behring) to the 2-fold diluted blood of (1); (4) blood prepared by adding 1 U heparin; or (5) blood prepared by adding 3 μg/ml Abciximab (Eli Lilly).
(§4) The integrated values of the pressures measured for 10 minutes, and the ratios between the first channel and the second channel are shown in the following Table 1.

Experiment [3] relates to blood coagulation. The experiment can be described thus: ROTEM analysis of canine blood coagulation in the absence of blood flow (Comparative Example 2). In kind it is cell-based. The settings on record: 0.5 U/ml with 50 μg/ml CTI and 12 mM calcium chloride. The protocol: Canine blood was anticoagulated with 3.2% sodium citrate. Subsequently, 12 mM calcium chloride; 50 μg/ml (final concentration) CTI and 12 mM (final concentration) calcium chloride; or 0.5 U/ml (final concentration) danaparoid sodium, 50 μg/ml CTI, and 12 mM (final concentration) calcium chloride; was/were added to the blood, and blood coagulation in the absence of blood flow was analyzed by ROTEM (Tem International GmbH).

In experiment [4] the test system is white thrombi in the presence of blood flow. Nature of the experiment: Microchip pressure analysis with canine blood (Examples 5, 6). The class given is cell-based. The settings on record: 0.5 U danaparoid sodium, 24 and 8 μl/min, 10 minutes. Here is the method: Canine blood was anticoagulated with 3.2% sodium citrate. Subsequently, 50 μg/ml (final concentration) CTI and 12 mM (final concentration) calcium chloride were added to the blood, and the resulting blood was used for perfusion of the first channel at a flow rate of 24 μl/min. and the second channel at a flow rate of 8 μl/min. for 10 minutes while pressure analysis was carried out.
An experiment was carried out in the same manner as in Example 5 except that 0.5 U danaparoid sodium was added to the dog sodium citrate blood.

In experiment [5] the test system is thrombus formation in blood. Nature of the experiment: Microchip pressure analysis, second channel, collagen + tissue thromboplastin, 24 μl/min (Example 4). The class given is cell-based. The settings on record: for integrated values of the pressures measured for 10 minutes, second channel: 24 μL/min. The protocol: as §1, §2, §3, §4
The subject of experiment [6] is thrombus formation in blood. Nature of the experiment: Microchip pressure analysis, first channel, collagen + 0.4 mg/ml tissue thromboplastin, 8 μl/min (Examples 9, 10). The settings on record: for areas under pressure, first channel: 8 μL/min. The class given is cell-based. Here is the method: (§5) The same microchip as in Examples 1 to 3 was used, except that, in the second substrate 1b, a solution prepared by mixing 3 mg/ml collagen and 0.4 mg/ml tissue thromboplastin solution at a ratio of 1:1 and a solution prepared by mixing 3 mg/ml collagen and 0.2 mg/ml tissue thromboplastin solution at a ratio of 1:1 were applied to the positions corresponding to the first reaction section 102 and the second reaction section 112, respectively, such that each applied area has a size of 6 mm×6 mm. The microchip prepared was used in the following experiment.
(§6) Blood was collected using a blood collection tube containing 3.2% sodium citrate, manufactured by Terumo Corporation. To the collected blood, 50 μg/ml (final concentration) CTI and 12 mM (final concentration) calcium chloride were added, and the resulting blood was used for perfusion of the first channel at a flow rate of 8 μl/min. and the second channel at a flow rate of 24 μl/min. for 10 minutes while pressure analysis was carried out.
(§7) The same experiment as in Example 9 was carried out except that blood prepared by 2-fold dilution with physiological saline (Otsuka Pharmaceutical Co., Ltd.), blood prepared by 2-fold dilution with physiological saline+addition of 0.5 U/ml vWF (CSL-Behring), blood prepared by 2-fold dilution+addition of 0.5 U/ml PCC (CSL-Behring), blood prepared by addition of 1 U/ml heparin, or blood prepared by addition of 2 μg/ml abciximab, was used.

Experiment [7] deals with thrombus formation in blood. Nature of the experiment: Microchip pressure analysis, second channel, collagen + 0.2 mg/ml tissue thromboplastin, 24 μl/min (Examples 9, 10). The settings on record: for areas under pressure, second channel: 24 μL/min. The class given is cell-based. Here is the method:
as §5, §6, §7

Experiment [8] concerns thrombus formation (fibrin and platelets) in blood. Nature of the experiment: Microchip pressure analysis, first channel coated with collagen and tissue thromboplastin, recalcified citrate blood + CTI (Examples 1, 2). The class given is cell-based, human. The protocol: (§8) Two transparent substrates, that is, the first substrate 1a shown in FIG. 1(A) and the second substrate 1b shown in FIG. 1(B) (injection-molded products manufactured by Richell Corporation), were prepared. In the first substrate 1a, each of the channels 101 and 111 has a length of 20 mm, depth of 40 μm, and width of 2 mm, and each of the waste liquid storage sections has a length of 30 mm, depth of 1.3 mm, and width of 8.5 mm.
(§9) In the substrate 1a, 25 dividing walls each having a height of 40 μm, width of 40 μm, and length of 1.5 mm were arranged at equal intervals at positions corresponding to the first reaction section and the second reaction section of the first channel and the second channel, to provide channel dividing walls 109 and 119, respectively.
(§10) In the second substrate 1b, the holes corresponding to the inlets 104 and 114 were provided as penetrating holes each having an inner diameter of 2 mm and a circular cross-sectional shape. On the other hand, the holes corresponding to the air holes 105 and 115 were provided as penetrating holes each having an inner diameter of 1 mm and a circular cross-sectional shape. […]
(§11) Pumps 107 and 117 were connected to the reservoirs 106 and 116 through tubes, and the pressures applied to the pumps were measured using pressure sensors 108 and 118.

For experiment [9], the system named is platelet-specific thrombus formation in blood. The experiment can be described thus: Microchip pressure analysis, second channel coated with only collagen, hirudin-treated blood (Examples 1, 2). The class given is cell-based, human. Here is the method:
as §8, §9, §10, §11

Where [10] appears, read: undiluted blood, heparin 1 U/ml or abciximab 3 μg/ml, control 409.3.
Where [11] appears, read: undiluted blood, heparin 1 U/ml or abciximab 3 μg/ml, control 482.
Setting [12] is: undiluted blood, 1 U/ml heparin or 2 μg/ml abciximab, cont 393.8.
The mark [13] stands for this setting: undiluted blood, 1 U/ml heparin or 2 μg/ml abciximab, cont 438.2.

For `CO[C@H]1O[C@H](COS(=O)(=O)O)[C@@H](O[C@@H]2O[C@@H](C(=O)O)[C@@H](O[C@H]3O[C@H](COS(=O)(=O)O)[C@@H](O[C@@H]4O[C@H](C(=O)O)[C@@H](O[C@H]5O[C@H](COS(=O)(=O)O)[C@@H](O)[C@H](O)[C@H]5NS(=O)(=O)O)[C@H](O)[C@H]4O)[C@H](OS(=O)(=O)O)[C@H]3NS(=O)(=O)O)[C@H](O)[C@H]2OS(=O)(=O)O)[C@H](O)[C@H]1NS(=O)(=O)O` [Arixtra], the “blood coagulation in the absence of blood flow” value in the experiment with blood coagulation [1] is on record as “strongly suppresses blood coagulation”. Further, the “change in the pressure waveform” value in experiment [2] (Example 4-1 conditions, further addition of 0.5 μg/ml to the blood) is reported as “no remarkable change in the pressure waveform”.
For the molecule danaparoid sodium, in the experiment with blood coagulation [3], the “blood coagulation in the absence of blood flow” value is given as “remarkable delay of blood coagulation”. The “white thrombi in the presence of blood flow” value in experiment [4] is listed as “hardly suppresses white thrombi”.
Consider heparin [reference compound], for which the “integrated values of the pressures measured for 10 minutes, first channel” value in experiment [2] (setting [10]) came out at 127.3. Moreover, in experiment [5] (setting [11]), the “integrated values of the pressures measured for 10 minutes, second channel” value was 328.4. Moreover, in experiment [6] (setting [12]), the “areas under pressure, first channel” value turned out to be 12. In addition, the “thrombus formation in the first channel” value in [6] (Examples 9 and 10) is listed as “more strongly suppressed thrombus formation in the first channel”. Also, the “areas under pressure, second channel” value in experiment [7] (setting [13]) came to 198.
Consider “vWF: vWF (von Willebrand factor) formulation (CSL-Behring)”, for which, in experiment [2] (50% dilution of citrate blood with physiological saline + 0.5 U/ml factor, 50% dilution alone 203.9), the “integrated values of the pressures measured for 10 minutes, first channel” value is 171.2. Besides, in experiment [5] (50% dilution of citrate blood with physiological saline + 0.5 U/ml factor, 50% dilution alone 248.2), the “integrated values of the pressures measured for 10 minutes, second channel” value turned out to be 381.1. In addition, the “thrombi in the second channel” value in experiment [5] (Example 4-2, 24 μl/min) was “remarkable recovery of thrombi in the second channel”. In addition, in [6] (50% dilution with physiological saline + 0.5 U/ml factor, 50% dil alone 195.8), the “areas under pressure, first channel” value turned out to be 297.9. Moreover, the “areas under pressure, second channel” value in experiment [7] (50% dilution with physiological saline + 0.5 U/ml factor, 50% dil alone 110.2) is listed as 282.8.

B1: abciximab (antibody, chains of the INN, looked up, V domains shown)
VH: EVQLQQSGTVLARPGASVKMSCEASGYTFTNYWMHWVKQRPGQGLEWIGAIYPGNSDTSYIQKFKGKAKLTAVTSTTSVYMELSSLTNEDSAVYYCTLYDGYYVFAYWGQGTLVTVSA
VL: EIVLTQSPVTLSVTPGDSVSLSCRASRDISNNLHWFQQTSHESPRLLIKYASQSMSGIPSRFSGSGSGTDFTLSINSVETEDFGMYFCQQTNSWPYTFGGGTKLEIK
modifications: Fab
Take B1: in [8] (Examples 1 and 2), the “thrombus formation in the first channel” value is “suppressed”. The “integrated values of the areas below 60 kPa, first channel” value in experiment [8] (citrate blood + 12 mM calcium chloride + 50 μg/ml CTI, 18 μl/min, 10 minutes, 10 mM aspirin + 100 μM AR-C66096, 3 μg/ml abciximab or 200 nM OS-1, control 457) is reported as 27.0. In addition, the “integrated values of the pressures measured for 10 minutes, first channel” value in experiment [2] (setting [10]) was 394.8. In experiment [5] (setting [11]), the “integrated values of the pressures measured for 10 minutes, second channel” value is given as 20.5. The “areas under pressure, first channel” value in experiment [6] (setting [12]) is 258. The “areas under pressure, second channel” value in experiment [7] (setting [13]) came out at 6. The “thrombus formation in the second channel” value is on record as “more strongly suppressed thrombus formation in the second channel” in [7] (Examples 9 and 10); “suppressed” in [9] (Examples 1 and 2). In experiment [9] (hirudin blood, 18 μl/min, 10 minutes, 10 mM aspirin + 100 μM AR-C66096, 3 μg/ml abciximab or 200 nM OS-1, control 372), the “integrated values of the areas below 60 kPa, second channel” value is on record as 5.4.
